Results: patent US9850247B2 (Almac Discovery Limited, priority 2013, dated 2017)

Target: T1, Wee-1 kinase (Homo sapiens, UniProt P30291)
T1 construct: purchased Invitrogen PV3817
Assay: Measurement of Wee-1 kinase activity (ADP-Glo luminescent kit)
Format: biochemical
Procedure: Method 1: Measurement of Wee-1 Kinase Activity
In the measurement of Wee-1 activity, a commercial peptide Poly(Lys Tyr (4:1)) hydrobromide was purchased from Sigma Aldrich and used as the substrate. Activated Wee-1 kinase was purchased from Invitrogen (PV3817) and an ADP-Glo luminescent kit was purchased from Promega.
All reactions took place in […] volumes in reaction buffer containing 40 mM Tris-HCl and 20 mM magnesium chloride, supplemented with 0.1 mg/mL bovine serum albumin and 2 mM DTT. Compounds were serially diluted in buffer and 5 μL of each concentration pipetted into a white 384 well plate (Sigma Aldrich M6186). A 5 μL aliquot of the Wee-1 enzyme was added to each well and the plate centrifuged for 1 min to ensure mixing of the enzyme and inhibitor.
The plate was incubated at room temperature for 30 minutes before the addition of 2.0 μg/mL of substrate and 30 μM ATP in a 5 μL aliquot. The plate was centrifuged for one minute and incubated for 1 h at RT.
15 µL of ADP-Glo stop reagent was added to each well to quench the reaction and deplete unconverted ATP. The plate was incubated for a further 40 min in the dark at RT.
30 μL of ADP-Glo kinase detection reagent was added to each well, converting ADP to ATP, catalysing the generation of luciferin by luciferase. The plate was shaken for 1 min, and incubated in the dark for an additional hour.
Luminescence from each well was detected using the Biotek Synergy4 HD plate reader and the percentage inhibition of kinase activity calculated for each inhibitor tested. Positive (kinase only) and negative (no kinase) controls were added to each plate to ensure specific interaction of kinase and inhibitor. The IC50 concentration for each inhibitor was calculated by plotting the percentage kinase inhibition against concentration of inhibitor and the curve generated by non-linear regression fitting.

T1 sequence (P30291 whole entry): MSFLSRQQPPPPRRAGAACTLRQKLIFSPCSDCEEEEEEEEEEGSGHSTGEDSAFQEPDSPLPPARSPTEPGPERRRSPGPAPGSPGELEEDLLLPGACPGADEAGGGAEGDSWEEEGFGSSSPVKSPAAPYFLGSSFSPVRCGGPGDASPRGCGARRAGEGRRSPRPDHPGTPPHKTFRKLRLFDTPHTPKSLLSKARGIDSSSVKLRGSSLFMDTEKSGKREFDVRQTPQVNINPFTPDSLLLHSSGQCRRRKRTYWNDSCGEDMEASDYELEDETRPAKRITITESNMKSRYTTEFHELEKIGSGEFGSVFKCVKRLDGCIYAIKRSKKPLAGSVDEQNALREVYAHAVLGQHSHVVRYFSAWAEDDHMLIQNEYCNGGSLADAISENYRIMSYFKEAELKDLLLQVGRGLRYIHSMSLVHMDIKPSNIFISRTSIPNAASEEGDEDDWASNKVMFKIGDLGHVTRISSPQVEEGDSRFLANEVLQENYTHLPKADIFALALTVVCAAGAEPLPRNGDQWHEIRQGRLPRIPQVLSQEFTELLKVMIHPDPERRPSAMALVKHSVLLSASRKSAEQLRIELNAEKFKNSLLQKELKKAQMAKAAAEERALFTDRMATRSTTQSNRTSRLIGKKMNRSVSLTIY

CN1CN(c2c(Cl)cccc2Cl)C(=O)c2cnc(Nc3ccc(N4CCN(C)C(C(F)(F)F)C4)cc3)nc21 (stereo not drawn) [Example 68, 3-(2,6-dichlorophenyl)-1-methyl-7-((4-(4-methyl-3-(trifluoromethyl)piperazin-1-yl)phenyl)amino)-2,3-dihydropyrimido[4,5-d]pyrimidin-4(1H)-one] and CN1CN(c2c(Cl)cccc2Cl)C(=O)c2cnc(Nc3ccc(N4CCNC(C(F)(F)F)C4)cc3)nc21 (stereo not drawn) [Example 62, 3-(2,6-dichlorophenyl)-1-methyl-7-((4-(3-(trifluoromethyl)piperazin-1-yl)phenyl)amino)-2,3-dihydropyrimido[4,5-d]pyrimidin-4(1H)-one] cannot be ordered by IC50: ≥ 100 nM for the first, 10 to 100 nM for the second.

COc1cc(Nc2ncc3c(n2)N(C)CN(c2ccccc2Cl)C3=O)ccc1N1C[C@@H]2C[C@H]1CN2 [Example 107, 7-((4-((1S,4S)-2,5-diazabicyclo[2.2.1]heptan-2-yl)-3-methoxyphenyl)amino)-3-(2-chlorophenyl)-1-methyl-2,3-dihydropyrimido[4,5-d]pyrimidin-4(1H)-one] and COc1cc(Nc2ncc3c(n2)N(C)CN(c2c(Cl)cccc2Cl)C3=O)ccc1N1C[C@@H]2C[C@H]1CN2 [Example 82, 7-((4-((1S,4S)-2,5-diazabicyclo[2.2.1]heptan-2-yl)-3-methoxyphenyl)amino)-3-(2,6-dichlorophenyl)-1-methyl-2,3-dihydropyrimido[4,5-d]pyrimidin-4(1H)-one] fall in the same range of IC50: 10 to 100 nM for the first, 10 to 100 nM for the second.

COCc1cc(Nc2ncc3c(n2)N(C)CN(c2c(Cl)cccc2Cl)C3=O)ccc1N1CCN(C)CC1 [Example 69] and COCc1cc(Nc2ncc3c(n2)N(C)CN(c2c(C)cccc2Cl)C3=O)ccc1N1CCN[C@H](C)C1 [Example 101, (R)-3-(2-chloro-6-methylphenyl)-7-((3-(methoxymethyl)-4-(3-methylpiperazin-1-yl)phenyl)amino)-1-methyl-2,3-dihydropyrimido[4,5-d]pyrimidin-4(1H)-one] fall in the same range of IC50: 10 to 100 nM for the first, 10 to 100 nM for the second.

C[C@@H]1CN(c2ccc(Nc3ncc4c(n3)N(C)CN(c3ccccc3Cl)C4=O)cc2F)CCN1 [Example 99, (R)-3-(2-chlorophenyl)-7-((3-fluoro-4-(3-methylpiperazin-1-yl)phenyl)amino)-1-methyl-2,3-dihydropyrimido[4,5-d]pyrimidin-4(1H)-one] and C[C@@H]1CN[C@@H](C)CN1c1ccc(Nc2ncc3c(n2)N(C)CN(c2ccccc2Cl)C3=O)cc1F [Example 110, 3-(2-chlorophenyl)-7-((4-((2R,5S)-2,5-dimethylpiperazin-1-yl)-3-fluorophenyl)amino)-1-methyl-2,3-dihydropyrimido[4,5-d]pyrimidin-4(1H)-one] fall in the same range of IC50: 10 to 100 nM for the first, 10 to 100 nM for the second.

CN1CN(c2c(Cl)cccc2Cl)C(=O)c2cnc(Nc3ccc4c(c3)C3CCC(C4)N3)nc21 (stereo not drawn) [Example 70, 3-(2,6-dichlorophenyl)-1-methyl-7-((6,7,8,9-tetrahydro-5H-5,8-epiminobenzo[7]annulen-3-yl)amino)-2,3-dihydropyrimido[4,5-d]pyrimidin-4(1H)-one] and COc1cc(Nc2ncc3c(n2)N(C)CN(c2c(Cl)cccc2Cl)C3=O)ccc1C1CCNCC1 [Example 182, 3-(2,6-dichlorophenyl)-7-((3-methoxy-4-(piperidin-4-yl)phenyl)amino)-1-methyl-2,3-dihydropyrimido[4,5-d]pyrimidin-4(1H)-one] cannot be ordered by IC50: 10 to 100 nM for the first, ≤ 10 nM for the second.

CN1CN(c2c(Cl)cccc2Cl)C(=O)c2cnc(Nc3ccc(N4CC5COCC(C4)N5C)cc3)nc21 [Example 71, 3-(2,6-dichlorophenyl)-1-methyl-7-((4-(9-methyl-3-oxa-7,9-diazabicyclo[3.3.1]nonan-7-yl)phenyl)amino)-2,3-dihydropyrimido[4,5-d]pyrimidin-4(1H)-one] and COC[C@H]1CN(c2ccc(Nc3ncc4c(n3)N(C)CN(c3c(Cl)cccc3Cl)C4=O)cc2)CCN1C [Example 65, (R)-3-(2,6-dichlorophenyl)-7-((4-(3-(methoxymethyl)-4-methylpiperazin-1-yl)phenyl)amino)-1-methyl-2,3-dihydropyrimido[4,5-d]pyrimidin-4(1H)-one] fall in the same range of IC50: 10 to 100 nM for the first, 10 to 100 nM for the second.

CN1CN(c2ccccc2Cl)C(=O)c2cnc(Nc3ccc(N4CC5C[C@H]4CN5)cc3)nc21 (stereo in doubt) [Example 104, 7-((4-((1S,4R)-2,5-diazabicyclo[2.2.1]heptan-2-yl)phenyl)amino)-3-(2-chlorophenyl)-1-methyl-2,3-dihydropyrimido[4,5-d]pyrimidin-4(1H)-one] and CN1CN(c2c(F)cccc2Cl)C(=O)c2cnc(Nc3ccc(N4C[C@@H]5C[C@H]4CN5)cc3)nc21 [Example 54, 7-((4-((1S,4S)-2,5-diazabicyclo[2.2.1]heptan-2-yl)phenyl)amino)-3-(2-chloro-6-fluorophenyl)-1-methyl-2,3-dihydropyrimido[4,5-d]pyrimidin-4(1H)-one] cannot be ordered by IC50: ≥ 100 nM for the first, 10 to 100 nM for the second.

CN1CN(c2ccccc2Cl)C(=O)c2cnc(Nc3ccc(N4CCNCC4)cc3)nc21 [Example 24, 3-(2-Chlorophenyl)-1-methyl-7-((4-(piperazin-1-yl)phenyl)amino)-2,3-dihydropyrimido[4,5-d]pyrimidin-4(1H)-one] and C[C@@H]1CN(c2ccc(Nc3ncc4c(n3)N(C)CN(c3ccccc3Cl)C4=O)cc2)CCN1 [Example 94, (R)-3-(2-chlorophenyl)-1-methyl-7-((4-(3-methylpiperazin-1-yl)phenyl)amino)-2,3-dihydropyrimido[4,5-d]pyrimidin-4(1H)-one] fall in the same range of IC50: 10 to 100 nM for the first, 10 to 100 nM for the second.

CN1CN(c2c(Cl)cccc2Cl)C(=O)c2cnc(Nc3ccc(N4CC5(CNC5)C4)cc3)nc21 [Example 51, 7-((4-(2,6-diazaspiro[3.3]heptan-2-yl)phenyl)amino)-3-(2,6-dichlorophenyl)-1-methyl-2,3-dihydropyrimido[4,5-d]pyrimidin-4(1H)-one] and Cc1cccc(Cl)c1N1CN(C)c2nc(Nc3ccc(N4CCN[C@H](C)C4)cc3)ncc2C1=O [Example 100, (R)-3-(2-chloro-6-methylphenyl)-1-methyl-7-((4-(3-methylpiperazin-1-yl)phenyl)amino)-2,3-dihydropyrimido[4,5-d]pyrimidin-4(1H)-one] fall in the same range of IC50: 10 to 100 nM for the first, 10 to 100 nM for the second.

C[C@@H]1CN(c2ccc(Nc3ncc4c(n3)N(C)CN(c3c(Cl)cccc3Cl)C4=O)cc2F)CCN1C [Example 47, (R)-3-(2,6-dichlorophenyl)-7-((4-(3,4-dimethylpiperazin-1-yl)-3-fluorophenyl)amino)-1-methyl-2,3-dihydropyrimido[4,5-d]pyrimidin-4(1H)-one] and CN1CN(c2c(Cl)cccc2Cl)C(=O)c2cnc(Nc3ccc(N4CCN(C)[C@H](CO)C4)c(F)c3)nc21 [Example 50, (S)-3-(2,6-dichlorophenyl)-7-((3-fluoro-4-(3-(hydroxymethyl)-4-methylpiperazin-1-yl)phenyl)amino)-1-methyl-2,3-dihydropyrimido[4,5-d]pyrimidin-4(1H)-one] fall in the same range of IC50: 10 to 100 nM for the first, 10 to 100 nM for the second.

C[C@@H]1CN[C@@H](C)CN1c1ccc(Nc2ncc3c(n2)N(C)CN(c2ccccc2Cl)C3=O)cc1 [Example 98, 3-(2-chlorophenyl)-7-((4-((2R,5S)-2,5-dimethylpiperazin-1-yl)phenyl)amino)-1-methyl-2,3-dihydropyrimido[4,5-d]pyrimidin-4(1H)-one] and C[C@@H]1CN[C@@H](C)CN1c1ccc(Nc2ncc3c(n2)N(C)CN(c2c(F)cccc2Cl)C3=O)cc1 [Example 93, 3-(2-chloro-6-fluorophenyl)-7-((4-((2R,5S)-2,5-dimethylpiperazin-1-yl)phenyl)amino)-1-methyl-2,3-dihydropyrimido[4,5-d]pyrimidin-4(1H)-one] fall in the same range of IC50: 10 to 100 nM for the first, 10 to 100 nM for the second.

COc1ccc(CN2CN(c3c(Cl)cccc3Cl)C(=O)c3cnc(Nc4ccc(N5CCNCC5)cc4)nc32)cc1 [Example 8, 3-(2,6-Dichlorophenyl)-1-(4-methoxybenzyl)-7-((4-(piperazin-1-yl)phenyl)amino)-2,3-dihydropyrimido[4,5-d]pyrimidin-4(1H)-one] and C[C@@H]1CN(c2ccc(Nc3ncc4c(n3)N(C3CC3)CN(c3c(Cl)cccc3Cl)C4=O)cc2)CCN1 [Example 85, (R)-1-cyclopropyl-3-(2,6-dichlorophenyl)-7-((4-(3-methylpiperazin-1-yl)phenyl)amino)-2,3-dihydropyrimido[4,5-d]pyrimidin-4(1H)-one] cannot be ordered by IC50: ≥ 100 nM for the first, 10 to 100 nM for the second.

CN1CN(c2ccccc2Cl)C(=O)c2cnc(Nc3ccc(N4CCNC5(CC5)C4)cc3)nc21 [Example 105, 7-((4-(4,7-diazaspiro[2.5]octan-7-yl)phenyl)amino)-3-(2-chlorophenyl)-1-methyl-2,3-dihydropyrimido[4,5-d]pyrimidin-4(1H)-one] and CN1CN(c2c(F)cccc2Cl)C(=O)c2cnc(Nc3ccc(N4CCOCC4)c(CO)c3)nc21 [Example 57] fall in the same range of IC50: 10 to 100 nM for the first, 10 to 100 nM for the second.

For CN1CN(c2c(F)cccc2Cl)C(=O)c2cnc(Nc3cccc(CO)c3)nc21 [Example 56, 3-(2-chloro-6-fluorophenyl)-7-((3-(hydroxymethyl)phenyl)amino)-1-methyl-2,3-dihydropyrimido[4,5-d]pyrimidin-4(1H)-one], the IC50 was ≥ 100 nM.
